Source: BigSolDB 2.1

CC(=O)Nc1ccc(O)cc1
solubility (mole fraction)
Settings	293.2 K	298.2 K	303.2 K	308.2 K	313.2 K
in acetonitrile	0.00682	0.00805	0.00935	0.0107	0.0118
in water	0.00164	0.00202	0.00229	0.00284	0.00313
